Laboratory results published in publication PMC4939597, “Mechanism for insulin-like peptide 5 distinguishing the homologous relaxin family peptide receptor 3 and 4” (Scientific Reports, 2016).
No end group written: not given here.

Experiments:
human RXFP4 [1] = target: T1, human RXFP4 (Homo sapiens, UniProt Q8TDU9); assay: Receptor binding assay, competition with NanoLuc-conjugated R3/I5 tracer
T1 construct: expressed in transfected cells; host or cells: HEK293T
Procedure: (§1) Figure 3 Receptor binding activities of the mature INSL5 and R3/I5 mutants towards RXFP3 and RXFP4. A NanoLuc-conjugated R3/I5 peptide was used as tracer and HEK293T cells transiently overexpressing human RXFP3 or human RXFP4 were used as receptor source. The tracer concentration used in these assays was 0.5 nM. The nonspecific binding was obtained by competition with 1.0 μM of relaxin-3. The measured data were expressed as mean ± SE (n = 3) and fitted to sigmoidal curves using the software SigmaPlot 10.0.
(§2) The receptor binding assays of the mature INSL5 and R3/I5 mutants were carried out using a NanoLuc-conjugated R3/I5 peptide as tracer and the human embryonic kidney (HEK) 293T cells transiently overexpressing human RXFP3 or human RXFP4 as receptor source. Nonspecific binding was obtained by competition with 1.0 μM of human relaxin-3. Briefly, HEK293T cells were transiently transfected with the expression construct of human RXFP3 or human RXFP4. Next day, the transfected cells were trypsinised, seeded into a 96-well plate, and continuously cultured for 24–36 h to confluence. To start binding assay, the medium was removed and the binding solution (serum-free DMEM medium plus 1% bovine serum albumin) containing 0.5 nM of the NanoLuc-conjugated R3/I5 tracer and varied concentrations of competitor was added (100 μl/well). After incubation at 21 °C for 2 h, the binding solution was removed and the cells were washed twice by ice-cold phosphate-buffered saline (200 μl/well for each wash). Thereafter, the cells were lysed by lysis solution (100 μl/well, from Promega, Madison, WI, USA) and the cell lysate was transferred to a white opaque 96-well plate (50 μl/well). After mixing with the freshly diluted substrate (50 μl/well), bioluminescence was immediately measured on a SpectraMax M5 plate reader (Molecular Devices, Sunnyvale, CA, USA) using the luminescence mode. The measured bioluminescence data were expressed as mean ± SE (n = 3) and fitted to sigmoidal curves using the SigmaPlot10.0 software.

human RXFP3 [2] = target: T2, human RXFP3 (Homo sapiens, UniProt Q9NSD7); assay: as above
T2 construct: expressed in transfected cells; host or cells: HEK293T
T2 sequence (Q9NSD7 1-469): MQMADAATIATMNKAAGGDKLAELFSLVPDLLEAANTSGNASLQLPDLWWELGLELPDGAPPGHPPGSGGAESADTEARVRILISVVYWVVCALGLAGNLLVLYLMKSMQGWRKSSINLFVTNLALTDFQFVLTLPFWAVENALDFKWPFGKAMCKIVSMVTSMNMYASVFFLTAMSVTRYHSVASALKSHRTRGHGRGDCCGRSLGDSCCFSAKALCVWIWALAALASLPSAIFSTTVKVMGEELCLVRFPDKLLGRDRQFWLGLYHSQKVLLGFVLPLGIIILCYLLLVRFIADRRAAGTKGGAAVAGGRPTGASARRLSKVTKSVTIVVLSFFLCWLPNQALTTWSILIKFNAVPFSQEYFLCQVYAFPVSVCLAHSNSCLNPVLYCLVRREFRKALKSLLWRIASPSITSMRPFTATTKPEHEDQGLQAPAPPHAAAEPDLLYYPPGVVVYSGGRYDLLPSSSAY
Procedure: as §1, §2

human RXFP4 [3] = target: T1, human RXFP4; assay: Receptor activation assay, CRE-controlled NanoLuc reporter; type: cell-based
Procedure: (§3) Figure 4 Receptor activation activities of the mature INSL5 and R3/I5 mutants towards RXFP3 and RXFP4. HEK293T cells transiently cotransfected by human RXFP3 or human RXFP4 and a CRE-controlled NanoLuc reporter were used for the activation assays. The measured data were expressed as mean ± SE (n = 3) and fitted to sigmoidal or linear curves using the software SigmaPlot 10.0.
(§4) The receptor activation assays of the mature INSL5 and R3/I5 mutants were carried out using a cAMP-response element (CRE)-controlled NanoLuc reporter according to our previous procedure. Briefly, HEK293T cells were transiently cotransfected with the expression construct of human RXFP3 or human RXFP4 and the CRE-controlled NanoLuc reporter vector pNL1.2/CRE. Next day, the transfected cells were trypsinised, seeded into a 96-well plate, and continuously cultured for 24–36 h to ~90% confluence. To start activation assay, the medium was removed and the activation solution (serum-free DMEM medium plus 1% bovine serum albumin) containing 1.0 μM of forskolin and varied concentrations of peptide was added (100 μl/well). After being continuously cultured at 37 °C for 4 h, the activation solution was removed and the cells were lysed by lysis solution (100 μl/well, from Promega). The cell lysate was then transferred to a white opaque 96-well plate (50 μl/well), mixed with the freshly diluted substrate (50 μl/well), and bioluminescence was immediately measured on a SpectraMax M5 plate reader (Molecular Devices) using the luminescence mode. The measured bioluminescence data were expressed as mean ± SE (n = 3) and fitted to sigmoidal or linear curves using the SigmaPlot10.0 software.

human RXFP3 [4] = target: T2, human RXFP3; assay: as above; type: cell-based; settings: for fold lower activation potency towards RXFP3 compared with wild-type R3/I5: lower than wild-type R3/I5
Procedure: as §3, §4

T1 sequence (Q8TDU9 whole entry): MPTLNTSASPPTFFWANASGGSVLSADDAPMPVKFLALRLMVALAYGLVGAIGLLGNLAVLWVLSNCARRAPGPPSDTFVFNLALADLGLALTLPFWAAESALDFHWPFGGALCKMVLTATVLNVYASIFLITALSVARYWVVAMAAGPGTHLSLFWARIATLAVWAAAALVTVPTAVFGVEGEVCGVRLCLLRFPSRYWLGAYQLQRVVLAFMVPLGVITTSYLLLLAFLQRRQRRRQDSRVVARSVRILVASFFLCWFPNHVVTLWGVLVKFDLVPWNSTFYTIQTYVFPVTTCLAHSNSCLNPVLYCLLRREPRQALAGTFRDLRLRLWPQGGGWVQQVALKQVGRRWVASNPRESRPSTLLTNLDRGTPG

[T(B14)A]INSL5: recombinant mature two-chain INSL5 mutant (Insulin-like peptide INSL5 B … KESVRLCGLEYIRAVIYICASSRW; Insulin-like peptide INSL5 A … QDLQTLCCTDGCSMTDLSALC; ends and bridges not checked; cysteine pairing not given here; UniProt Q9Y5Q6 23-46; Q9Y5Q6 115-135, looked up, variant T14A)
pIC50 RXFP4 (human RXFP4 [1]; HEK293T cells transiently overexpressing human RXFP4, 0.5 nM NanoLuc-conjugated R3/I5 tracer, 21 °C, 2 h, mean ± SE, n = 3, SEM): 7.57 ± 0.05 | pIC50 RXFP3 (human RXFP3 [2]; HEK293T cells transiently overexpressing human RXFP3, 0.5 nM NanoLuc-conjugated R3/I5 tracer, 21 °C, 2 h, mean ± SE, n = 3, SEM): 7.06 ± 0.03 | pEC50 RXFP4 (human RXFP4 [3]; HEK293T cells cotransfected with human RXFP4 and CRE-controlled NanoLuc reporter, 1.0 μM forskolin, 37 °C, 4 h, mean ± SE, n = 3, SEM): 9.05 ± 0.04 | activation potency towards RXFP3, result in words (human RXFP3 [4]; CRE-controlled NanoLuc reporter, HEK293T cells, human RXFP3): no detectable activation potency

CC[C@H](C)[C@@H]1NC(=O)[C@H](Cc2ccccc2)NC(=O)[C@H](CCC(=O)O)NC(=O)[C@H](CC(C)C)NC(=O)CNC(=O)[C@@H](NC(=O)[C@H](CC(C)C)NC(=O)[C@H](CCCCN)NC(=O)[C@@H](NC(=O)CNC(=O)[C@H](Cc2ccc(O)cc2)NC(=O)[C@@H]2CCCN2C(=O)[C@H](C)NC(=O)[C@H](C)NC(=O)[C@@H](N)CCCNC(=N)N)C(C)C)CSSC[C@@H]2NC(=O)[C@@H](NC(=O)[C@H](CC(C)C)NC(=O)[C@@H](NC(=O)[C@H](CCC(N)=O)NC(=O)[C@H](CC(C)C)NC(=O)[C@H](CC(=O)O)NC(=O)[C@@H](N)CCC(N)=O)[C@@H](C)O)CSSC[C@H](NC(=O)CNC(=O)[C@H](CC(=O)O)NC(=O)[C@H]([C@@H](C)O)NC2=O)C(=O)N[C@@H](CO)C(=O)N[C@@H](CCSC)C(=O)N[C@@H]([C@@H](C)O)C(=O)N[C@@H](CC(=O)O)C(=O)N[C@@H](CC(C)C)C(=O)N[C@@H](CO)C(=O)N[C@@H](C)C(=O)N[C@@H](CC(C)C)C(=O)N[C@H](C(=O)O)CSSC[C@@H](C(=O)NCC(=O)NCC(=O)N[C@@H](CO)C(=O)N[C@@H](CCCNC(=N)N)C(=O)N[C@@H](Cc2c[nH]c3ccccc23)C(=O)O)NC(=O)[C@H]([C@@H](C)O)NC(=O)[C@H](Cc2ccccc2)NC(=O)[C@H]([C@@H](C)CC)NC(=O)[C@H](C(C)C)NC(=O)[C@H](C)NC(=O)[C@H](CCCNC(=N)N)NC1=O [[R(B12)L]R3/I5]
fold lower binding potency towards RXFP3 compared with wild-type R3/I5 (human RXFP3 [2]; lower than wild-type R3/I5): ~ 110 fold | fold lower activation potency towards RXFP3 compared with wild-type R3/I5 (human RXFP3 [4]): ~ 1600 fold

CC[C@H](C)[C@@H]1NC(=O)[C@H](Cc2ccccc2)NC(=O)[C@H](CCC(=O)O)NC(=O)[C@H](CCCNC(=N)N)NC(=O)CNC(=O)[C@@H](NC(=O)[C@H](CC(C)C)NC(=O)[C@H](CCCCN)NC(=O)[C@@H](NC(=O)CNC(=O)[C@H](Cc2ccc(O)cc2)NC(=O)[C@@H]2CCCN2C(=O)[C@H](C)NC(=O)[C@H](C)NC(=O)[C@@H](N)CCCNC(=N)N)C(C)C)CSSC[C@@H]2NC(=O)[C@@H](NC(=O)[C@H](CC(C)C)NC(=O)[C@@H](NC(=O)[C@H](CCC(N)=O)NC(=O)[C@H](CC(C)C)NC(=O)[C@H](CC(=O)O)NC(=O)[C@@H](N)CCC(N)=O)[C@@H](C)O)CSSC[C@H](NC(=O)CNC(=O)[C@H](CC(=O)O)NC(=O)[C@H]([C@@H](C)O)NC2=O)C(=O)N[C@@H](CO)C(=O)N[C@@H](CCSC)C(=O)N[C@@H]([C@@H](C)O)C(=O)N[C@@H](CC(=O)O)C(=O)N[C@@H](CC(C)C)C(=O)N[C@@H](CO)C(=O)N[C@@H](C)C(=O)N[C@@H](CC(C)C)C(=O)N[C@H](C(=O)O)CSSC[C@@H](C(=O)NCC(=O)NCC(=O)N[C@@H](CO)C(=O)N[C@@H](CCCNC(=N)N)C(=O)N[C@@H](Cc2c[nH]c3ccccc23)C(=O)O)NC(=O)[C@H]([C@@H](C)O)NC(=O)[C@H](Cc2ccc(O)cc2)NC(=O)[C@H]([C@@H](C)CC)NC(=O)[C@H](C(C)C)NC(=O)[C@H](C)NC(=O)[C@H](CCCNC(=N)N)NC1=O [[F(B20)Y]R3/I5]
fold lower binding potency towards RXFP4 compared with wild-type R3/I5 (human RXFP4 [1]; lower than wild-type R3/I5): ~ 3 fold | fold lower activation potency towards RXFP4 than wild-type R3/I5 (human RXFP4 [3]; lower than wild-type R3/I5): ~ 15 fold | fold lower activation potency towards RXFP3 compared with wild-type R3/I5 (human RXFP3 [4]): ~ 3 fold

CC[C@H](C)[C@@H]1NC(=O)[C@H](Cc2ccccc2)NC(=O)[C@H](CCC(=O)O)NC(=O)[C@H](CCCNC(=N)N)NC(=O)CNC(=O)[C@@H](NC(=O)[C@H](CC(C)C)NC(=O)[C@H](CCCCN)NC(=O)[C@@H](NC(=O)CNC(=O)[C@H](CCC(=O)O)NC(=O)[C@@H]2CCCN2C(=O)[C@H](C)NC(=O)[C@H](C)NC(=O)[C@@H](N)CCCNC(=N)N)C(C)C)CSSC[C@@H]2NC(=O)[C@@H](NC(=O)[C@H](CC(C)C)NC(=O)[C@@H](NC(=O)[C@H](CCC(N)=O)NC(=O)[C@H](CC(C)C)NC(=O)[C@H](CC(=O)O)NC(=O)[C@@H](N)CCC(N)=O)[C@@H](C)O)CSSC[C@H](NC(=O)CNC(=O)[C@H](CC(=O)O)NC(=O)[C@H]([C@@H](C)O)NC2=O)C(=O)N[C@@H](CO)C(=O)N[C@@H](CCSC)C(=O)N[C@@H]([C@@H](C)O)C(=O)N[C@@H](CC(=O)O)C(=O)N[C@@H](CC(C)C)C(=O)N[C@@H](CO)C(=O)N[C@@H](C)C(=O)N[C@@H](CC(C)C)C(=O)N[C@H](C(=O)O)CSSC[C@@H](C(=O)NCC(=O)NCC(=O)N[C@@H](CO)C(=O)N[C@@H](CCCNC(=N)N)C(=O)N[C@@H](Cc2c[nH]c3ccccc23)C(=O)O)NC(=O)[C@H]([C@@H](C)O)NC(=O)[C@H](Cc2ccccc2)NC(=O)[C@H]([C@@H](C)CC)NC(=O)[C@H](C(C)C)NC(=O)[C@H](C)NC(=O)[C@H](CCCNC(=N)N)NC1=O [[Y(B5)E]R3/I5]
fold lower activation potency towards RXFP3 compared with wild-type R3/I5 (human RXFP3 [4]): ~ 6 fold

CC[C@H](C)[C@@H]1NC(=O)[C@H](Cc2ccccc2)NC(=O)[C@H]([C@@H](C)CC)NC(=O)[C@H](C(C)C)NC(=O)[C@H]([C@@H](C)O)NC(=O)[C@H](CCCNC(=N)N)NC(=O)[C@H]([C@@H](C)CC)NC(=O)[C@H](Cc2ccc(O)cc2)NC(=O)[C@H](CCC(=O)O)NC(=O)[C@H](CCCNC(=N)N)NC(=O)CNC(=O)[C@@H](NC(=O)[C@H](CC(C)C)NC(=O)[C@H](CCCNC(=N)N)NC(=O)[C@@H](NC(=O)[C@H](CO)NC(=O)[C@H](CCC(=O)O)NC(=O)[C@@H](N)CCCCN)C(C)C)CSSC[C@@H]2NC(=O)[C@@H](NC(=O)[C@H](CC(C)C)NC(=O)[C@@H](NC(=O)[C@H](CCC(N)=O)NC(=O)[C@H](CC(C)C)NC(=O)[C@H](CC(=O)O)NC(=O)[C@@H](N)CCC(N)=O)[C@@H](C)O)CSSC[C@H](NC(=O)CNC(=O)[C@H](CC(=O)O)NC(=O)[C@H]([C@@H](C)O)NC2=O)C(=O)N[C@@H](CO)C(=O)N[C@@H](CCSC)C(=O)N[C@@H]([C@@H](C)O)C(=O)N[C@@H](CC(=O)O)C(=O)N[C@@H](CC(C)C)C(=O)N[C@@H](CO)C(=O)N[C@@H](C)C(=O)N[C@@H](CC(C)C)C(=O)N[C@H](C(=O)O)CSSC[C@@H](C(=O)NCC(=O)NCC(=O)N[C@@H](CO)C(=O)N[C@@H](CCCNC(=N)N)C(=O)N[C@@H](Cc2c[nH]c3ccccc23)C(=O)O)NC1=O [[L(B9)R,Y(B17)F,A(B20)G,S(B21)G]INSL5]
fold lower activation potency towards RXFP3 than relaxin-3 (human RXFP3 [4]; lower than relaxin-3): ~ 100 fold
